# Test results published in patent publication US12011426B2, “Methods of metabolic regulation of mitochondria for treating neural injury and neurological disorders” (The USA, as represented by the Secretary, Dept. of Health …, priority 2018, dated 2024).
# Experiments:
# [1] = tested on: retina ganglion cells (RGCs); assay: Optic nerve crush (ONC), retina ganglion cell survival; format: in vivo, ground squirrel; details: awake animals; injected into the eye before and after the ONC surgery
# Source text: Previous work has shown that succinate regulates macrophages, causing them to switch between pro-inflammatory and anti-inflammatory states (Mills, et al., (2016) Succinate Dehydrogenase Supports Metabolic Repurposing of Mitochondria to Drive Inflammatory Macrophages. Cell, […]; 457-470.e13). Thus, the inventors hypothesized that immune regulation due to reduced succinate levels may occur in the retina during hibernation, and that this may subsequently affect cellular response to neural injury. To test this hypothesis, optic nerve crush (ONC), a classic axonal injury experiment, was performed in awake and in hibernating ground squirrels. Retina ganglion cells (RGCs) appeared to survive ONC during hibernation (FIG. 4). Intriguingly, a key cellular response difference between awake and hibernating animals to ONC is microglial aggregation and activation, in line with the hypothesis that low succinate level during hibernation may prevent microglia from activation in response to injury. To further test this hypothesis, a second experiment was done in which dimethyl malonate (DMM), an inhibitor of SDH, was injected into the eye before and after the ONC surgery in awake animals to create a lower succinate condition, thereby mimicking hibernation. […] To further examine the role of microglia, microglia were pharmacologically eliminated before ONC surgery in awake animals. […]
# mitochondrial ROS = assay: In situ mitochondrial ROS production in retina after partial ONC (MitoNeoD dye); format: in vivo, thirteen lined ground squirrel (TLGS); details: active TLGSs with ONC; intraocular injection
# Source text: (§1) It is known in the art that a key event in the LPS-induced macrophage activation is the over-production of mitochondrial ROS driven by the hyperpolarization of mitochondrial membrane potential and SDH-accelerated succinate oxidation (Mills et al., 2016). However, for the retina, it is challenging to perform live ROS measurement, because enucleation causes an acute ROS surge due to severing of the optic nerve. Thus, a method was developed to visualize in situ mitochondrial ROS production in thirteen lined ground squirrel (TLGS) retina with optic nerve crush (ONC), that used a mitochondrial ROS dye—MitoNeoD (Shchepinova et al., 2017). […] In active TLGS retina with partial ONC injuries, it was observed that above the optic nerve fiber/RGC layers there were cells decorated with bright MitoNeoOH (oxidized and fluorescent form of MitoNeoD) signals (arrows in FIG. 6D) overlapping with a mitochondrial protein marker (TOM20) (FIGS. 7A, 7B, and 7C). These cells were then confirmed to be mostly microglial cells (FIGS. 7D, 7E, and 7F). It was then confirmed that intraocular injection of DMM indeed lowered SDH activity in the retina of ONC-injured active TLGSs (FIG. 8B).
# [2] = tested on: succinate dehydrogenase (SDH); assay: SDH activity in the retina of ONC-injured active TLGSs; format: in vivo, thirteen lined ground squirrel (TLGS); details: intraocular injection
# Source text: as §1
# [3] = tested on: microglia cell line (BV2); assay: LPS-induced pro-inflammatory cytokine production in a microglia cell line; format: cell-based, mouse
# Source text: The direct effect of DMM on microglia was examined by conducting an in vitro experiment using a microglia cell line (BV2).
# as §1
# [4] = cultured microglial cells, 100 ng/ml LPS + 1 mM or 10 mM DMM
# [5] = mouse BV-2, concentration not given
structure (smiles),measurement,setting,value
"COC(=O)CC(=O)OC [DMM, dimethyl malonate]",RGC survival after ONC,[1],significantly improved
same,mitochondrial ROS production,mitochondrial ROS,significantly alleviated
same,SDH activity in the retina,[2],lowered
same,response of microglia to LPS,"[3]; BV2, DMM 1 or 10 mM",significantly attenuated
same,production of IL1A,[3]; [4],significantly reduced
same,production of MCP-1,[3]; [4],significantly reduced
same,LPS-induced production of IL-1α,[3]; [5],effectively reduced
same,LPS-induced production of IL-6,[3]; [5],effectively reduced
same,LPS-induced production of MCP-1,[3]; [5],effectively reduced
